Reference: patent US12226412B2, “Heteroaryl-ketone fused azadecalin glucocorticoid receptor modulators” (Corcept Therapeutics, Inc., priority 2012, dated 2025)

Assays:
human recombinant GR = target: T1, human recombinant GR (Homo sapiens, UniProt P04150); test: Human glucocorticoid receptor (GR) fluorescence polarisation (FP) binding assay; conditions: human recombinant GR, fluorescence polarisation binding assay; read-out: GR binding
T1 construct: purchased PanVera P2812
T1 sequence (P04150 1-777): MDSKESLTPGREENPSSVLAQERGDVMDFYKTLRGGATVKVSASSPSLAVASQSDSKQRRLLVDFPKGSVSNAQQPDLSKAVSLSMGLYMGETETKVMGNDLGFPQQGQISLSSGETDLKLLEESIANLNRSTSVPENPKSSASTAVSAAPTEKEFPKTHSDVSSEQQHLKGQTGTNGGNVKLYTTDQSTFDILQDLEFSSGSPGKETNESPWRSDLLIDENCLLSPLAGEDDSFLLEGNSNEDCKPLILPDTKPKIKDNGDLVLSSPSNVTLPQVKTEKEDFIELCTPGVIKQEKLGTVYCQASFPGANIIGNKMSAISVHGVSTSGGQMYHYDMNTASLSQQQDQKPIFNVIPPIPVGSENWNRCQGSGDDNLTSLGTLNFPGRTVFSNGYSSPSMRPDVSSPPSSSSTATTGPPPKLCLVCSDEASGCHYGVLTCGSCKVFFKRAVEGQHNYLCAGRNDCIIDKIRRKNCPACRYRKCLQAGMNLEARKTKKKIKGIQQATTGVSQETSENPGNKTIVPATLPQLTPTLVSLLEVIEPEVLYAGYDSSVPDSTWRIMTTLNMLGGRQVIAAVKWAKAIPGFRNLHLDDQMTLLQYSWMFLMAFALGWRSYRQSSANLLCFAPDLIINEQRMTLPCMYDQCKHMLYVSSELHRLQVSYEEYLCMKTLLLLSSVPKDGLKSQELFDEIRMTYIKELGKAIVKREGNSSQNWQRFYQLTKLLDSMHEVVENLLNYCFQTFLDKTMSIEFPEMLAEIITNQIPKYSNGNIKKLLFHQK
In short: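 Competition fluorescence polarisation: 0.5 nM GS Red labelled glucocorticoid and 1 nM recombinant human GR with 8-point half-log compound series, 1% DMSO, 4 h room temperature, potassium phosphate pH 7.4 buffer with molybdate, EDTA, DTT. Affinity derived from the drop in polarisation, normalised to blank wells.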

[1] = tested on: induction of TAT by dexamethasone in HepG2 cells; test: HepG2 tyrosine aminotransferase (TAT) assay; type: cell-based, human; conditions: HepG2 cells, challenge of 100 nM dexamethasone; Ki from IC50 by Cheng and Prusoff equation

Ki (human recombinant GR) [nM]	Compound	Ki [1] [nM]
< 0.5	Cc1cnc(C(=O)[C@]23Cc4cnn(-c5ccc(F)cc5)c4C=C2CCN(S(=O)(=O)c2cnn(C)c2)C3)s1 [Example 12T, (R)-(1-(4-fluorophenyl)-6-((1-methyl-1H-pyrazol-4-yl)sulfonyl)-4,4a,5,6,7,8-hexahydro-1H-pyrazolo[3,4-g]isoquinolin-4a-yl)(5-methylthiazol-2-yl)methanone]	< 20
> 1	Cc1cc(S(=O)(=O)N2CCC3=Cc4c(cnn4-c4ccc(F)cc4)C[C@]3(C(=O)c3ncc(C)s3)C2)n(C)n1 [Example 12U, (R)-(6-((1,3-dimethyl-1H-pyrazol-5-yl)sulfonyl)-1-(4-fluorophenyl)-4,4a,5,6,7,8-hexahydro-1H-pyrazolo[3,4-g]isoquinolin-4a-yl)(5-methylthiazol-2-yl)methanone]	20 to 100
0.5 to 1	Cc1cnc(C(=O)[C@]23Cc4cnn(-c5ccc(F)cc5)c4C=C2CCN(S(=O)(=O)c2ccnn2C)C3)s1 [Example 12V, (R)-(1-(4-fluorophenyl)-6-((1-methyl-1H-pyrazol-5-yl)sulfonyl)-4,4a,5,6,7,8-hexahydro-1H-pyrazolo[3,4-g]isoquinolin-4a-yl)(5-methylthiazol-2-yl)methanone]	20 to 100
> 1	CCn1nccc1S(=O)(=O)N1CCC2=Cc3c(cnn3-c3ccc(F)cc3)C[C@]2(C(=O)c2nccs2)C1 [Example 12W, (R)-(6-((1-ethyl-1H-pyrazol-5-yl)sulfonyl)-1-(4-fluorophenyl)-4,4a,5,6,7,8-hexahydro-1H-pyrazolo[3,4-g]isoquinolin-4a-yl)(thiazol-2-yl)methanone]	≥ 100
< 0.5	CCn1cc(S(=O)(=O)N2CCC3=Cc4c(cnn4-c4ccc(F)cc4)C[C@]3(C(=O)c3nccs3)C2)cn1 [Example 12X, (R)-(6-((1-ethyl-1H-pyrazol-4-yl)sulfonyl)-1-(4-fluorophenyl)-4,4a,5,6,7,8-hexahydro-1H-pyrazolo[3,4-g]isoquinolin-4a-yl)(thiazol-2-yl)methanone]	20 to 100
< 0.5	CCCn1cc(S(=O)(=O)N2CCC3=Cc4c(cnn4-c4ccc(F)cc4)C[C@]3(C(=O)c3nccs3)C2)cn1 [Example 12Y, (R)-(1-(4-fluorophenyl)-6-((1-propyl-1H-pyrazol-4-yl)sulfonyl)-4,4a,5,6,7,8-hexahydro-1H-pyrazolo[3,4-g]isoquinolin-4a-yl)(thiazol-2-yl)methanone]	< 20
< 0.5	Cc1cccc(S(=O)(=O)N2CCC3=Cc4c(cnn4-c4ccc(F)cc4)C[C@]3(C(=O)c3nccn3C)C2)c1 [Example 13A, (R)-(1-(4-fluorophenyl)-6-(m-tolylsulfonyl)-4,4a,5,6,7,8-hexahydro-1H-pyrazolo [3,4-g]isoquinolin-4a-yl)(1-methyl-1H-imidazol-2-yl)methanone]	20 to 100
< 0.5	O=C(c1ccccn1)[C@]12Cc3cnn(-c4cccnc4)c3C=C1CCN(S(=O)(=O)c1cccc(C(F)(F)F)c1)C2 [Example 15A, (R)-pyridin-2-yl(1-(pyridin-3-yl)-6-((3-(trifluoromethyl)phenyl)sulfonyl)-4,4a,5,6,7,8-hexahydro-1H-pyrazolo[3,4-g]isoquinolin-4a-yl)methanone]	20 to 100
< 0.5	O=C(c1ccccn1)[C@]12Cc3cnn(-c4ccccc4)c3C=C1CCN(S(=O)(=O)c1ccc(Cl)c(Cl)c1)C2 [Example 15B, (R)-(6-((3,4-dichlorophenyl)sulfonyl)-1-phenyl-4,4a,5,6,7,8-hexahydro-1H-pyrazolo[3,4-g]isoquinolin-4a-yl)(pyridin-2-yl)methanone]	< 20
< 0.5	O=C(c1ccccn1)[C@]12Cc3cnn(-c4ccc(F)c(F)c4)c3C=C1CCN(S(=O)(=O)c1ccc(Cl)c(Cl)c1)C2 [Example 15C, (R)-(6-((3,4-dichlorophenyl)sulfonyl)-1-(3,4-difluorophenyl)-4,4a,5,6,7,8-hexahydro-1H-pyrazolo[3,4-g]isoquinolin-4a-yl)(pyridin-2-yl)methanone]	20 to 100
0.5 to 1	COc1c(F)cc(S(=O)(=O)N2CCC3=Cc4c(cnn4-c4ccc(F)cc4)C[C@]3(C(=O)c3ccccn3)C2)cc1F [Example 15D, (R)-(6-((3,5-difluoro-4-methoxyphenyl)sulfonyl)-1-(4-fluorophenyl)-4,4a,5,6,7,8-hexahydro-1H-pyrazolo[3,4-g]isoquinolin-4a-yl)(pyridin-2-yl)methanone]	< 20

The next lines start with the compound.

Compound	Ki (human recombinant GR) [nM]	Ki [1] [nM]
Cc1ccc(S(=O)(=O)N2CCC3=Cc4c(cnn4-c4ccc(F)cc4)C[C@]3(C(=O)c3nccn3C)C2)cc1 [Example 13, (R)-(1-(4-fluorophenyl)-6-tosyl-4,4a,5,6,7,8-hexahydro-1H-pyrazolo [3,4-g]isoquinolin-4a-yl)(1-methyl-1H-imidazol-2-yl)methanone]	0.5 to 1	20 to 100
CN(C)C(=O)c1cccc(S(=O)(=O)N2CCC3=Cc4c(cnn4-c4ccc(F)cc4)C[C@]3(C(=O)c3ccccn3)C2)c1 [Example 14, (R)-3-((1-(4-fluorophenyl)-4a-picolinoyl-4a,5,7,8-tetrahydro-1H-pyrazolo[3,4-g]isoquinolin-6 (4H)-yl)sulfonyl)-N,N-dimethylbenzamide]	< 0.5	20 to 100
CCn1cc(S(=O)(=O)N2CCC3=Cc4c(cnn4-c4ccc(F)cc4)C[C@]3(C(=O)c3cc(C(F)(F)F)ccn3)C2)cn1 [Example 15, (R)-(6-((1-ethyl-1H-pyrazol-4-yl)sulfonyl)-1-(4-fluorophenyl)-4,4a,5,6,7,8-hexahydro-1H-pyrazolo[3,4-g]isoquinolin-4a-yl)(4-(trifluoromethyl)pyridin-2-yl)methanone]	< 0.5	< 20
CN(C)c1ccc(S(=O)(=O)N2CCC3=Cc4c(cnn4-c4ccc(F)cc4)C[C@]3(C(=O)c3ccccn3)C2)cn1 [Example 16, (R)-(6-((6-(dimethylamino)pyridin-3-yl)sulfonyl)-1-(4-fluorophenyl)-4,4a,5,6,7,8-hexahydro-1H-pyrazolo[3,4-g]isoquinolin-4a-yl)(pyridin-2-yl)methanone]	< 0.5	20 to 100
Cn1cc(S(=O)(=O)N2CCC3=Cc4c(cnn4-c4ccc(F)cc4)C[C@]3(C(=O)c3cc(C(F)(F)F)ccn3)C2)cn1 [Example 18, (R)-(1-(4-fluorophenyl)-6-((1-methyl-1H-pyrazol-4-yl)sulfonyl)-4,4a,5,6,7,8-hexahydro-1H-pyrazolo[3,4-g]isoquinolin-4a-yl)(4-(trifluoromethyl)pyridin-2-yl)methanone]	< 0.5	< 20
O=C(c1cscn1)[C@]12Cc3cnn(-c4ccc(F)cc4)c3C=C1CCN(S(=O)(=O)c1ccc(Cl)c(Cl)c1)C2 [Example 19, (R)-(6-((3,4-dichlorophenyl)sulfonyl)-1-(4-fluorophenyl)-4,4a,5,6,7,8-hexahydro-1H-pyrazolo[3,4-g]isoquinolin-4a-yl)(thiazol-4-yl)methanone]	< 0.5	< 20
